Where “and” joins values, the source holds several entries; their conditions need not be identical. Identical values can stand only once.
Experiment: xn = mol fraction of the nth substance listed
Details: 101 kPa

CCC(O)CO (stereo unspecified) + O
viscosity
Details	293.15 K	298.15 K	303.15 K	308.15 K	313.15 K	318.15 K	323.15 K
x1 = 0.005	1.087 mPa·s	0.964 mPa·s	0.865 mPa·s	0.783 mPa·s	–	–	–
x1 = 0.0099	–	–	0.935 mPa·s	0.838 mPa·s	0.756 mPa·s	0.687 mPa·s	0.628 mPa·s
x1 = 0.01	1.188 mPa·s	1.034 mPa·s	0.919 mPa·s	0.824 mPa·s	–	–	–
x1 = 0.015	1.285 mPa·s	1.129 mPa·s	0.978 mPa·s	–	–	–	–
x1 = 0.02	1.372 mPa·s	1.204 mPa·s	1.099 mPa·s and 1.052 mPa·s	0.976 mPa·s	0.874 mPa·s	0.789 mPa·s	0.716 mPa·s
x1 = 0.0299	–	–	1.268 mPa·s	1.117 mPa·s	0.993 mPa·s	0.89 mPa·s	0.802 mPa·s
x1 = 0.0401	–	–	1.459 mPa·s	1.275 mPa·s	1.126 mPa·s	1.002 mPa·s	0.9 mPa·s
x1 = 0.0496	–	–	1.639 mPa·s	1.422 mPa·s	1.247 mPa·s	1.104 mPa·s	0.986 mPa·s
x1 = 0.0599	–	–	1.856 mPa·s	1.599 mPa·s	1.394 mPa·s	1.229 mPa·s	1.092 mPa·s
x1 = 0.0701	–	–	2.073 mPa·s	1.776 mPa·s	1.54 mPa·s	1.351 mPa·s	1.193 mPa·s
x1 = 0.0799	–	–	2.279 mPa·s	1.944 mPa·s	1.679 mPa·s	1.467 mPa·s	1.292 mPa·s
x1 = 0.0899	–	–	2.493 mPa·s	2.12 mPa·s	1.823 mPa·s	1.587 mPa·s	1.395 mPa·s
x1 = 0.0999	–	3.41 mPa·s	2.736 mPa·s and 2.855 mPa·s	2.311 mPa·s and 2.445 mPa·s	1.98 mPa·s and 2.138 mPa·s	1.718 mPa·s	1.506 mPa·s
x1 = 0.2006	–	6.704 mPa·s	5.489 mPa·s	4.586 mPa·s	3.907 mPa·s	–	–
x1 = 0.3009	–	10.27 mPa·s	8.312 mPa·s	6.887 mPa·s	5.759 mPa·s	–	–
x1 = 0.4001	–	14.49 mPa·s	11.54 mPa·s	9.39 mPa·s	7.779 mPa·s	–	–
x1 = 0.5025	–	19.54 mPa·s	15.45 mPa·s	12.42 mPa·s	10.14 mPa·s	–	–
x1 = 0.5987	–	25.28 mPa·s	19.39 mPa·s	15.5 mPa·s	12.54 mPa·s	–	–
x1 = 0.702	–	31.76 mPa·s	24.06 mPa·s	18.94 mPa·s	15.12 mPa·s	–	–
x1 = 0.8038	–	38.27 mPa·s	28.82 mPa·s	22.48 mPa·s	17.7 mPa·s	–	–
x1 = 0.8972	–	45.12 mPa·s	33.44 mPa·s	25.72 mPa·s	20.14 mPa·s	–	–
